Measured values taken from patent US6951651B2, “CTL epitope analogs” (priority 1999, dated 2005).
Ends that are not written are not given here.

What was measured:
T cell clone VB57 = assay: Chromium release assay, peptide-sensitized targets lysed by T cell clone VB57; assay type: cell-based, human; settings: for Peptide Concentration (nM), Amide, VB57: carboxyl terminal amide peptide
From the text: (§1) To take advantage of the increased immunogenicity of peptides 44 and 46, while maintaining the universal recognition of the native peptide, library-directed changes were made to peptides 44 and 46, substituting back the native amino acids. A series of 21 peptides were constructed based upon the sequence of the tetra-substituted peptides 44 and 46 in each of the carboxyl terminal amidated and free acid forms. The peptides contained single, double, or triple substitutions of amino acids of the native sequence at the positions indicated. These peptides were assayed utilizing a standard chromium release assay with the screening T cell clone, 3-3F4, and a representative T cell clone (VB57) from another individual expressing a different T cell receptor.

T cell clone 3-3F4 = assay: Chromium release assay, peptide-sensitized targets lysed by T cell clone 3-3F4; assay type: cell-based, human; settings: for Peptide Concentration (nM), Free Acid, 3-3F4 / Peptide Concentration (nM), Amide, 3-3F4: chromium release, T cell clone 3-3F4; for Conc. (nM): concentration of peptide in which specific killing was between 15 and 30 percent: HLA A*0201-restricted EBVLCL targets, 3-3F4 effectors, E:T=5, 10-fold dilutions 500-0.00005 nM; for recognition by T cell clone 3-3F4 (in words): chromium release assay; for Peptide Concentration (nM), Amide, 3-3F4: carboxyl terminal amide peptide
Description: Nonamer peptides with the substitutions as shown at each position were synthesized as described in Example 1. […] Results of these assays are shown in the right-hand column of Table II, in terms of concentration of peptide (nM) in which specific killing was between 15 and 30 percent. Results presented are the average from at least three independent experiments carried out on different days using different batches of T cell […]. Peptides were tested using 10-fold dilutions, ranging from 500-0.00005 nM.
as §1

Substance	Peptide Concentration (nM), Free Acid, 3-3F4 (T cell clone 3-3F4)	Conc. (nM): concentration of peptide in which specific killing was between 15 and 30 percent (T cell clone 3-3F4)	Peptide Concentration (nM), Amide, VB57 (T cell clone VB57)	Peptide Concentration (nM), Amide, 3-3F4 (T cell clone 3-3F4)	further results
194C: nonamer NLLPMVATV, SEQ ID NO 40 (NLLPMVATV-OH) [Peptide 194C]	>5 nM	–	–	–	Peptide Concentration (nM), Free Acid, VB57 (T cell clone VB57): >5 nM
55N: nonamer YLLWMVTPV amide, SEQ ID NO 26 (YLLWMVTPV-NH2) [Peptide 55N]	–	500 nM	–	–	–
47N: nonamer YLLPMVTPV amide, SEQ ID NO 23 (YLLPMVTPV-NH2) [Peptide 47N]	–	500 nM	–	–	recognition by T cell clone 3-3F4 (in words) (T cell clone 3-3F4): less active than the native sequence
117C: nonamer NLLPMVTTV, SEQ ID NO 50 (NLLPMVTTV-OH) [Peptide 117C]	0.5 nM	–	–	–	Peptide Concentration (nM), Free Acid, VB57 (T cell clone VB57): 5 nM
121N: nonamer YLLPMVVTV amide, SEQ ID NO 73 (YLLPMVVTV-NH2) [Peptide 121N]	–	–	>5 nM	5 nM	–
122C: nonamer YLLPMVTTV, SEQ ID NO 76 (YLLPMVTTV-OH) [Peptide 122C]	>5 nM	–	–	–	Peptide Concentration (nM), Free Acid, VB57 (T cell clone VB57): >5 nM
127N: nonamer NLLPMVTSV amide, SEQ ID NO 67 (NLLPMVTSV-NH2) [Peptide 127N]	–	–	>5 nM	0.05 nM	–
59N: nonamer YLLWYVTPV amide, SEQ ID NO 34 (YLLWYVTPV-NH2) [Peptide 59N]	–	>500 nM	–	–	–
56N: nonamer YLLWYVVSV amide, SEQ ID NO 22 (YLLWYVVSV-NH2) [Peptide 56N]	–	50 nM	–	–	–
127C: nonamer NLLPMVTSV, SEQ ID NO 68 (NLLPMVTSV-OH) [Peptide 127C]	5 nM	–	–	–	Peptide Concentration (nM), Free Acid, VB57 (T cell clone VB57): >5 nM
A7N: native sequence NLVPMVATV with amidated carboxyl terminus, SEQ ID NO 18 (NLVPMVATV-NH2) [Peptide A7N]	–	0.5 nM	–	–	–
117N: nonamer NLLPMVTTV amide, SEQ ID NO 49 (NLLPMVTTV-NH2) [Peptide 117N]	–	–	>5 nM	0.05 nM	–
120C: nonamer NLVPMVTSV, SEQ ID NO 56 (NLVPMVTSV-OH) [Peptide 120C]	5 nM	–	–	–	Peptide Concentration (nM), Free Acid, VB57 (T cell clone VB57): >5 nM
52N: nonamer YLLWMVVSV amide, SEQ ID NO 24 (YLLWMVVSV-NH2) [Peptide 52N]	–	500 nM	–	–	–
116N: nonamer NLLPMVVTV amide, SEQ ID NO 47 (NLLPMVVTV-NH2) [Peptide 116N]	–	–	>5 nM	0.5 nM	–
58N: nonamer YLLWYVTSV amide, SEQ ID NO 27 (YLLWYVTSV-NH2) [Peptide 58N]	–	500 nM	–	–	–
114C: nonamer YLVPMVTTV, SEQ ID NO 62 (YLVPMVTTV-OH) [Peptide 114C]	0.5 nM	–	–	–	Peptide Concentration (nM), Free Acid, VB57 (T cell clone VB57): 5 nM
112N: nonamer NLVPMVASV amide, SEQ ID NO 45 (NLVPMVASV-NH2) [Peptide 112N]	–	–	0.5 nM	0.5 nM	–
111C: nonamer NLVPMVTTV, SEQ ID NO 44 (HCMV vaccine peptide) [Peptide 111C]	0.05 nM	–	–	–	Peptide Concentration (nM), Free Acid, VB57 (T cell clone VB57): 5 nM; recognition by T cell clone 3-3F4 (in words) (T cell clone 3-3F4): equivalent to its amidated counterpart
50N: nonamer YLLPYVTSV amide, SEQ ID NO 31 (YLLPYVTSV-NH2) [Peptide 50N]	–	>500 nM	–	–	–
54N: nonamer YLLWMVTSV amide, SEQ ID NO 21 (YLLWMVTSV-NH2) [Peptide 54N]	–	0.5 nM	–	–	–
125N: nonamer YLVPMVTSV amide, SEQ ID NO 71 (YLVPMVTSV-NH2) [Peptide 125N]	–	–	>5 nM	0.05 nM	–
194N: nonamer NLLPMVATV amide, SEQ ID NO 39 (NLLPMVATV-NH2) [Peptide 194N]	–	–	0.5 nM	0.05 nM	–
195C: nonamer YLLPMVATV, SEQ ID NO 58 (YLLPMVATV-OH) [Peptide 195C]	>5 nM	–	–	–	Peptide Concentration (nM), Free Acid, VB57 (T cell clone VB57): >5 nM
48N: nonamer YLLPYVVSV amide, SEQ ID NO 29 (YLLPYVVSV-NH2) [Peptide 48N]	–	>500 nM	–	–	–

Substance	Peptide Concentration (nM), Free Acid, 3-3F4 (T cell clone 3-3F4)	Conc. (nM): concentration of peptide in which specific killing was between 15 and 30 percent (T cell clone 3-3F4)	Peptide Concentration (nM), Amide, VB57 (T cell clone VB57)	Peptide Concentration (nM), Amide, 3-3F4 (T cell clone 3-3F4)	further results
195N: nonamer YLLPMVATV amide, SEQ ID NO 57 (YLLPMVATV-NH2) [Peptide 195N]	–	–	0.5 nM	0.005 nM	–
126N: nonamer NLLPMVVSV amide, SEQ ID NO 65 (NLLPMVVSV-NH2) [Peptide 126N]	–	–	0.5 nM	0.005 nM	–
120N: nonamer NLVPMVTSV amide, SEQ ID NO 55 (NLVPMVTSV-NH2) [Peptide 120N]	–	–	>5 nM	0.05 nM	–
113N: nonamer YLVPMVVTV amide, SEQ ID NO 59 (YLVPMVVTV-NH2) [Peptide 113N]	–	–	>5 nM	0.5 nM	–
113C: nonamer YLVPMVVTV, SEQ ID NO 60 (YLVPMVVTV-OH) [Peptide 113C]	>5 nM	–	–	–	–
116C: nonamer NLLPMVVTV, SEQ ID NO 48 (NLLPMVVTV-OH) [Peptide 116C]	>5 nM	–	–	–	–
49N: nonamer YLLPYVVPV amide, SEQ ID NO 30 (YLLPYVVPV-NH2) [Peptide 49N]	–	>500 nM	–	–	–
57N: nonamer YLLWYVVPV amide, SEQ ID NO 33 (YLLWYVVPV-NH2) [Peptide 57N]	–	>500 nM	–	–	–
119N: nonamer NLVPMVVSV amide, SEQ ID NO 53 (NLVPMVVSV-NH2) [Peptide 119N]	–	–	>5 nM	0.005 nM	–
110C: nonamer NLVPMVVTV, SEQ ID NO 42 (NLVPMVVTV-OH) [Peptide 110C]	0.5 nM	–	–	–	–
45N: nonamer YLLPMVVPV amide, SEQ ID NO 28 (YLLPMVVPV-NH2) [Peptide 45N]	–	>500 nM	–	–	recognition by T cell clone 3-3F4 (in words) (T cell clone 3-3F4): less active than the native sequence
110N: nonamer NLVPMVVTV amide, SEQ ID NO 41 (NLVPMVVTV-NH2) [Peptide 110N]	–	–	>5 nM	0.05 nM	–
122N: nonamer YLLPMVTTV amide, SEQ ID NO 75 (YLLPMVTTV-NH2) [Peptide 122N]	–	–	>5 nM	5 nM	–
111N: nonamer NLVPMVTTV amide, SEQ ID NO 43 (NLVPMVTTV-NH2) [Peptide 111N]	–	–	>5 nM	0.05 nM	–
123N: nonamer YLLPMVASV amide, SEQ ID NO 77 (YLLPMVASV-NH2) [Peptide 123N]	–	–	0.5 nM	0.05 nM	–
126C: nonamer NLLPMVVSV, SEQ ID NO 66 (NLLPMVVSV-OH) [Peptide 126C]	5 nM	–	–	–	Peptide Concentration (nM), Free Acid, VB57 (T cell clone VB57): >5 nM
124C: nonamer YLVPMVVSV, SEQ ID NO 70 (YLVPMVVSV-OH) [Peptide 124C]	>5 nM	–	–	–	Peptide Concentration (nM), Free Acid, VB57 (T cell clone VB57): >5 nM
123C: nonamer YLLPMVASV, SEQ ID NO 78 (YLLPMVASV-OH) [Peptide 123C]	>5 nM	–	–	–	Peptide Concentration (nM), Free Acid, VB57 (T cell clone VB57): >5 nM
124N: nonamer YLVPMVVSV amide, SEQ ID NO 69 (YLVPMVVSV-NH2) [Peptide 124N]	–	–	5 nM	0.5 nM	–
53N: nonamer YLLWMVVPV amide, SEQ ID NO 25 (YLLWMVVPV-NH2) [Peptide 53N]	–	500 nM	–	–	–
119C: nonamer NLVPMVVSV, SEQ ID NO 54 (NLVPMVVSV-OH) [Peptide 119C]	>5 nM	–	–	–	Peptide Concentration (nM), Free Acid, VB57 (T cell clone VB57): >5 nM
125C: nonamer YLVPMVTSV, SEQ ID NO 72 (YLVPMVTSV-OH) [Peptide 125C]	>5 nM	–	–	–	Peptide Concentration (nM), Free Acid, VB57 (T cell clone VB57): >5 nM
121C: nonamer YLLPMVVTV, SEQ ID NO 74 (YLLPMVVTV-OH) [Peptide 121C]	>5 nM	–	–	–	–
51N: nonamer YLLPYVTPV amide, SEQ ID NO 32 (YLLPYVTPV-NH2) [Peptide 51N]	–	>500 nM	–	–	–
